Assay results published in patent publication US6620834B1, “Medicinal compositions for treating colorectal cancer” (Hisamitsu Pharmaceutical Co., Inc., priority 1999, dated 2003).

Test system: Yoshida's sarcoma
Assay: liver metastasis inhibitory effect in Yoshida's sarcoma rat model bearing a colorectal cancer
Type: in vivo
Conditions: Donryu rats, Yoshida's sarcoma injected to sigmoid subserous; intra-colon administration for 5 days, autopsy day 6; versus control group
Method: The solution was prepared in which pravastatin and aspirin were mixed in the mixing ratio below, and the pharmacological evaluation was carried out in the liver metastasis model of rat colorectal cancer.
The liver metastasis inhibitory effect was evaluated in the following procedure by use of the mix solution prepared in the example 1.
Donryu strain rats (8 weeks old) were used. Under a sodium pentobarbital anesthesia a catheter was inserted from the ileocecum into the colon, and the plug was put out from the back part and fixed. At the same time Yoshida's sarcoma (1.5×10^6cells/30 μl/rat) was injected to the sigmoid subserous.
The mix solution prepared in the example 1 was administered intra-colon or orally for 5 days from the next day after the surgery, and at day 6 a pathologic autopsy was made.
When the test on day 6 was finished, rats were killed by bleeding for a pathologic autopsy. The liver was isolated from each individual, fixed by a neutral buffered formalin solution, and a tissue section was then prepared to obtain histopathological findings. The metastasis inhibitory ratio was calculated comparing with the engraftment ratio of the cancer cells in the control group.

CC(=O)Oc1ccccc1C(=O)O [aspirin, Aspirin]
liver metastasis inhibitory effect: hardly observed
